The supplement of paper PMC10307832

Columns and labels:
Assay in all cases: relative viability (nuclei count vs DMSO), 5 days (fraction); higher = more cells survive
[1] = compound: CNC(=O)c1cc(Oc2ccc(NC(=O)Nc3ccc(Cl)c(C(F)(F)F)c3)cc2)ccn1 [Sorafenib] + CC(C)C[C@H](NC(=O)[C@H](Cc1ccccc1)NC(=O)c1cnccn1)B(O)O [Bortezomib] (partner 0.002 µM)
Summary of the method: (§1)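 Lung cancer cell lines were pin-tool dosed in 1536-well plates on the day after seeding, with either a lone drug or a fixed anchor-drug dose plus five library-drug doses (not always all listed) in √10 steps. Nuclei were counted on 4× images after 5 days. Relative viability is the ratio of treated-well to vehicle-well nuclei counts, with each value a median of duplicate plates.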

[2] = compound: CNC(=O)c1cc(Oc2ccc(NC(=O)Nc3ccc(Cl)c(C(F)(F)F)c3)cc2)ccn1 [Sorafenib] + CC(=O)c1c(C)c2cnc(Nc3ccc(N4CCNCC4)cn3)nc2n(C2CCCC2)c1=O [Palbociclib] (partner 0.5 µM)
Summary of the method: as §1

[3] = compound: CNC(=O)c1cc(Oc2ccc(NC(=O)Nc3ccc(Cl)c(C(F)(F)F)c3)cc2)ccn1 [Sorafenib] + CS(=O)(=O)N1CCN(Cc2cc3nc(-c4cccc5[nH]ncc45)nc(N4CCOCC4)c3s2)CC1 [Pictilisib] (partner 1 µM)
Summary of the method: as §1

[4] = compound: CNC(=O)c1cc(Oc2ccc(NC(=O)Nc3ccc(Cl)c(C(F)(F)F)c3)cc2)ccn1 [Sorafenib] + Nc1nc2[nH]cc(CCc3ccc(C(=O)N[C@@H](CCC(=O)O)C(=O)O)cc3)c2c(=O)[nH]1 [Pemetrexed] (partner 0.2 µM)
Summary of the method: as §1

[5] = compound: CNC(=O)c1cc(Oc2ccc(NC(=O)Nc3ccc(Cl)c(C(F)(F)F)c3)cc2)ccn1 [Sorafenib] + O=C(c1cc(Cc2n[nH]c(=O)c3ccccc23)ccc1F)N1CCN(C(=O)C2CC2)CC1 [Olaparib] (partner 8 µM)
Summary of the method: as §1

Row | Cell Line | relative viability ([1]; first compound 0.08 µM) | relative viability ([1]; first compound 0.253 µM) | relative viability ([1]; first compound 2.53 µM) | relative viability ([1]; first compound 8 µM) | relative viability ([2]; first compound 0.08 µM) | relative viability ([2]; first compound 0.253 µM) | relative viability ([2]; first compound 2.53 µM) | relative viability ([2]; first compound 8 µM) | relative viability ([3]; first compound 0.08 µM) | relative viability ([3]; first compound 0.253 µM) | relative viability ([3]; first compound 2.53 µM) | relative viability ([3]; first compound 8 µM) | relative viability ([4]; first compound 0.08 µM) | relative viability ([4]; first compound 0.253 µM) | relative viability ([4]; first compound 2.53 µM) | relative viability ([4]; first compound 8 µM) | relative viability ([5]; first compound 0.08 µM) | relative viability ([5]; first compound 0.253 µM) | relative viability ([5]; first compound 2.53 µM) | relative viability ([5]; first compound 8 µM)
1 | 201T | 1.1 | 1.07 | 1.19 | 1.18 | 0.34 | 0.343 | 0.36 | 0.357 | 0.684 | 0.669 | 0.72 | 0.65 | 0.334 | 0.302 | 0.334 | 0.328 | 0.812 | 0.88 | 0.877 | 0.843
2 | A-427 | 0.953 | 0.922 | 0.96 | 0.817 | 0.531 | 0.553 | 0.589 | 0.474 | 0.771 | 0.669 | 0.768 | 0.376 | 0.926 | 0.919 | 1.05 | 0.954 | 0.71 | 0.771 | 0.733 | 0.635
3 | ABC-1 | 0.36 | 0.253 | 0.321 | 0.336 | 0.712 | 0.682 | 0.854 | 0.725 | 0.78 | 0.713 | 1.02 | 0.332 | – | – | – | – | – | 0.565 | 0.693 | 0.4
4 | BEN | 0.951 | 0.659 | – | 0.631 | 0.48 | 0.513 | 0.413 | 0.516 | 0.649 | 0.512 | 0.531 | 0.413 | 0.839 | 0.657 | – | 0.674 | 1.02 | 1.1 | 1.01 | 0.791
5 | CAL-12T | 1.04 | 0.689 | 1.24 | 0.465 | 0.512 | 0.396 | 0.489 | 0.247 | 0.6 | 0.396 | 0.575 | 0.396 | 1.22 | 1.1 | 1.01 | 1.13 | 0.81 | 0.616 | 0.639 | 0.602
6 | COR-L23 | 1.11 | 0.964 | 0.888 | 0.877 | 0.301 | 0.288 | 0.319 | 0.264 | 0.952 | 0.881 | 0.745 | 0.676 | 0.2 | 0.199 | 0.19 | 0.212 | 0.336 | 0.372 | 0.346 | 0.233
7 | COR-L 105 | – | 0.806 | 0.994 | 0.478 | 0.452 | 0.365 | 0.411 | 0.384 | 0.413 | 0.487 | 0.476 | 0.329 | 1.26 | 1.31 | 1.32 | 0.852 | 0.697 | 0.72 | 0.78 | 0.718
8 | ChaGo-K-1 | 1.18 | 0.781 | 1.16 | 0.451 | 0.908 | 0.894 | – | 0.679 | 0.939 | 0.592 | 0.794 | 0.399 | 0.247 | 0.258 | 0.264 | 0.248 | 0.41 | 0.388 | 0.441 | 0.361
9 | EKVX | 1.19 | 0.879 | 0.962 | 0.994 | 0.425 | 0.43 | 0.432 | 0.321 | 0.529 | 0.463 | 0.434 | 0.393 | 0.511 | 0.365 | 0.375 | 0.389 | 0.91 | 0.76 | 0.796 | 0.682
10 | EMC-BAC-2 | 1.06 | 0.917 | 1.07 | 1.02 | 0.519 | 0.439 | 0.467 | 0.477 | 0.54 | 0.6 | 0.549 | 0.472 | 0.438 | 0.389 | 0.41 | 0.516 | 0.473 | 0.387 | 0.45 | 0.461
11 | EPLC-272H | 0.945 | 0.872 | 0.959 | 0.696 | 0.332 | 0.338 | 0.486 | 0.295 | 0.393 | 0.286 | 0.45 | 0.299 | 0.412 | 0.295 | 0.318 | 0.542 | 1.11 | 0.838 | 1.02 | 0.283
12 | H3255 | 0.841 | 0.706 | 1.05 | 0.726 | 0.33 | 0.3 | 0.306 | 0.287 | 0.525 | 0.434 | 0.521 | 0.305 | 0.636 | 0.554 | 0.587 | 0.47 | 0.574 | 0.532 | 0.536 | 0.438
13 | HARA | 1.18 | 1.02 | 1.16 | 1.02 | 0.295 | 0.286 | 0.303 | 0.339 | 0.373 | 0.341 | 0.411 | 0.327 | 0.246 | 0.237 | 0.257 | 0.233 | 0.868 | 0.794 | 0.391 | 0.478
14 | HCC-15 | 0.996 | 0.83 | 0.912 | 0.807 | 0.77 | 0.619 | 0.708 | 0.48 | 0.729 | 0.683 | – | 0.602 | 0.253 | 0.211 | 0.22 | 0.145 | 0.701 | 0.641 | 0.575 | 0.442
